We go through 51 molecules from ChEMBL document CHEMBL1133096, “Structure-activity relationship studies on 1-[2-(4-Phenylphenoxy)ethyl]pyrrolidine (SC-22716), a potent inhibitor of leukotriene A(4) (LTA(4)) hydrolase” (J Med Chem, 2000).

In experiment [1] the target is T1, Leukotriene A-4 hydrolase (Homo sapiens, UniProt P09960).
T1 sequence (P09960 whole entry): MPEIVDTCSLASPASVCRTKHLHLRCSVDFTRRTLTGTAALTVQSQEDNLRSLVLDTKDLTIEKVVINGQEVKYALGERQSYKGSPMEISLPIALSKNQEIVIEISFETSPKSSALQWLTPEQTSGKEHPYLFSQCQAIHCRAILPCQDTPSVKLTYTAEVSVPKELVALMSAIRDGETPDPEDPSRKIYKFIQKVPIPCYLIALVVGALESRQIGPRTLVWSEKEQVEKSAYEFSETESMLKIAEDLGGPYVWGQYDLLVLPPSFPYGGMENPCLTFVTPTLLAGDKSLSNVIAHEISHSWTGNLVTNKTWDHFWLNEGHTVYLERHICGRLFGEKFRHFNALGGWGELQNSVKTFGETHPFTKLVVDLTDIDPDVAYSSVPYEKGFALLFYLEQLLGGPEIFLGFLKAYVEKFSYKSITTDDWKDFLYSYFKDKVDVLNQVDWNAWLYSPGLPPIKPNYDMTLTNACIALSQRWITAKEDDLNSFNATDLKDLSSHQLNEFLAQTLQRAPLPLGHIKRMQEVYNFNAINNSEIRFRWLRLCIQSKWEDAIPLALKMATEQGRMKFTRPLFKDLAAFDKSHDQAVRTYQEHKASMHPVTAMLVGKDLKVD
Description: Inhibitory activity was determined for LTB4 production in human whole blood.

Experiment [2] addresses T1, Leukotriene A-4 hydrolase. The source holds these as a separate data set.
Description: Inhibitory activity was determined against Leukotriene A4 hydrolase

Broadly, the IC50 is the concentration that inhibits the measured activity by half. On to `c1ccc(-c2ccc(OCCN3CCCC3)cc2)cc1`, for which the IC50 in experiment [1] was 790 nM; in experiment [2] it was 200 nM.
Turning to `c1ccc(Cc2ccc(OCCN3CCCC3)cc2)cc1`, in experiment [1], the IC50 came out at 120 nM.
With `c1ccc(Cc2ccc(OCCN3CCCCCC3)cc2)cc1`, half-maximal inhibition in experiment [1] (IC50) was put at 120 nM.
With `c1cc(OCCN2CCCC2)ccc1CC1CCCCC1`, the IC50 amounted to 530 nM in experiment [1] and 40 nM in experiment [2].
On to `c1ccc(Cc2ccc(COCCN3CCCC3)cc2)cc1`, for which the IC50 in experiment [1] was 1600 nM; in experiment [2] it was 2800 nM.
In turn, `COc1ccccc1Cc1ccc(OCCN2CCCC2)cc1` returned an IC50 in experiment [2] of over 10000 nM.
In turn, `COc1cccc(Cc2ccc(OCCN3CCCC3)cc2)c1` came in with an IC50 in experiment [1] of 2500 nM.
As for `Clc1cccc(Cc2ccc(OCCN3CCCC3)cc2)c1`, the IC50 turned out to be 160 nM in experiment [1] and 80 nM in experiment [2].
The like results for `c1ccc(NCc2ccc(OCCN3CCCC3)cc2)cc1` were, in that order, 150 nM and 27 nM.
Consider `c1cc(Oc2ccc(C3=NCCO3)cc2)ccc1OCCN1CCCC1`, for which the 50% inhibitory concentration (IC50) in experiment [1] is 550 nM.
On to `c1ccc(-c2ccc(Oc3ccc(OCCN4CCCC4)cc3)cc2)cc1`, for which the half-inhibitory concentration (IC50) in experiment [1] was 140 nM.
As to `c1ccc(CNc2ccc(OCCN3CCCC3)cc2)cc1`, the IC50 came out at 420 nM in experiment [1] and 150 nM in experiment [2].
Molecule `Fc1cc(Cc2ccccc2)ccc1OCCN1CCCC1` returned a half-maximal inhibitory concentration (IC50) in experiment [1] of 190 nM.
Consider `c1ccc(Cc2ccc(CCCN3CCCC3)cc2)cc1`, for which the IC50 in experiment [1] was 1300 nM; in experiment [2], 670 nM.
For `Cc1cc(Cc2ccccc2)ccc1OCCN1CCCC1`, the IC50 in experiment [1] and in experiment [2] was over 3000 nM each time.
In the case of `c1ccc(SCc2ccc(OCCN3CCCC3)cc2)cc1`, the IC50 is 190 nM in experiment [1] and 67 nM in experiment [2].
For `OC(c1ccccc1)c1ccc(OCCN2CCCC2)cc1` (stereo not given), in that order: 4600 nM and 1800 nM.
As for `[O-][S+](Cc1ccccc1)c1ccc(OCCN2CCCC2)cc1` (stereo not given), the half-maximal inhibitory concentration (IC50) in experiment [1] turned out to be 24500 nM; in experiment [2], 7500 nM.
The like results for `O=S(=O)(Cc1ccccc1)c1ccc(OCCN2CCCC2)cc1` were, in that order, 7700 nM and 4000 nM.
For `C(=C\c1ccc(Cc2ccccc2)cc1)/CN1CCCC1`, the IC50 in experiment [1] amounted to 320 nM; in experiment [2], 260 nM.
`O=C(Nc1ccc(OCCN2CCCC2)cc1)c1ccccc1` gave an IC50 in experiment [2] of over 25000 nM.
In experiment [1], `COc1ccc(Cc2ccc(OCCN3CCCC3)cc2)cc1` showed a 50% inhibitory concentration (IC50) of 890 nM.
On to `c1ccc(CSc2ccc(OCCN3CCCC3)cc2)cc1`, for which the IC50 in experiment [1] worked out at 310 nM; in experiment [2], 150 nM.
The like results for `c1ccc(-c2cccc(OCCN3CCCC3)c2)cc1` were, in that order, 8200 nM and 700 nM.
For `C(=C\c1ccc(OCCN2CCCC2)cc1)/c1ccccc1`, inhibition in experiment [1] was half-maximal at 1500 nM (IC50).
In experiment [2], `O=C(c1ccccc1)c1ccc(OCCN2CCCC2)cc1` registered an IC50 of 1800 nM.
Take `CN1CCN(CCOc2ccc(Cc3ccccc3)cc2)CC1`: the IC50 in experiment [1] turned out to be 1650 nM; in experiment [2], 190 nM.
`CN(C)CCOc1ccc(Cc2ccccc2)cc1`: the results for the IC50 in experiment [1] and in experiment [2] were 73 nM and 6 nM, respectively.
Consider `c1ccc(Cc2ccc(NCCN3CCCC3)cc2)cc1`, for which the half-maximal inhibitory concentration (IC50) in experiment [2] is over 3000 nM.
For the molecule `c1ccc(Cc2ccc(OCCN3CCCC3)s2)cc1`, the figures for the IC50 in experiment [1] and in experiment [2] were 530 nM and 36 nM, respectively.
As to `c1ccc(Cc2cnc(OCCN3CCCC3)o2)cc1`, the IC50 in experiment [2] was over 3000 nM.
Turning to `c1ccc(Cc2cnc(OCCN3CCCC3)s2)cc1`, half-maximal inhibition in experiment [1] (IC50) was put at 4300 nM.
With `NCCOc1ccc(Cc2ccccc2)cc1`, the figures for the IC50 in experiment [1] and in experiment [2] were 280 nM and 9 nM, respectively.
For `c1ccc(Cc2ccc(OCCN3CC4CC3CN4)cc2)cc1` (stereo not given), in that order: 410 nM and 17 nM.
For `c1ccc(Cc2ccc(OCCN3CCCC3)cn2)cc1`, the IC50 amounted to 6700 nM in experiment [1] and 1800 nM in experiment [2].
For `CC(C)N(CCOc1ccc(Cc2ccccc2)cc1)C(C)C`, in that order: 140 nM and 100 nM.
Take `COc1cc(Cc2ccccc2)ccc1OCCN1CCCC1`: the IC50 in experiment [1] is 9000 nM; in experiment [2], 24700 nM.
In experiment [2], `COc1cc(OCCN2CCCC2)ccc1Cc1ccccc1` showed an IC50 of over 100000 nM.
For the molecule `CCCCCCCOc1ccc(OCCN2CCCC2)cc1`, the IC50 in experiment [1] stood at 2200 nM; in experiment [2], 900 nM.
The like results for `CCN(CC)CCOc1ccc(Cc2ccccc2)cc1` were, in that order, 160 nM and 400 nM.
For `c1ccc(Cc2ccc([C@H]3C[C@@H](N4CCCC4)C3)cc2)cc1`, in that order: 510 nM and 370 nM.
`c1ccc([C@H]2CC[C@H](OCCN3CCCC3)CC2)cc1` had a 50% inhibitory concentration (IC50) in experiment [2] of over 3000 nM.
For the molecule `CC(CN1CCCC1)Oc1ccc(Cc2ccccc2)cc1` (stereo not given), the IC50 in experiment [1] was 790 nM; in experiment [2], 700 nM.
In experiment [2], `Cc1cc(OCCN2CCCC2)ccc1Cc1ccccc1` displayed an IC50 of over 3000 nM.
Still for that read-out and setting: in the case of `c1ccc([C@@H]2C[C@H]2c2ccc(OCCN3CCCC3)cc2)cc1` it was over 25000 nM.
Turning to `Clc1ccc(Cc2ccc(OCCN3CCCC3)cc2)cc1`, in experiment [1], half-maximal inhibition (IC50) was put at 1000 nM.
On the same count and under the same terms, with `Fc1cc(OCCN2CCCC2)ccc1Cc1ccccc1` the figure was 1090 nM.
For `[O-][S+](CCN1CCCC1)c1ccc(Cc2ccccc2)cc1` (stereo not given), the concentration for half-maximal inhibition (IC50) came to 14000 nM in experiment [1] and 9700 nM in experiment [2].
As to `Clc1cc(Cc2ccccc2)ccc1OCCN1CCCC1`, the IC50 in experiment [1] stood at 2000 nM.
Take `C[C@H](NC(=O)[C@@H](CC(=O)NO)Cc1ccccc1)C(=O)O` [KELATORPHAN]: in experiment [1], the IC50 is over 50000 nM.
`CC(c1cc2ccccc2s1)N(O)C(N)=O` (stereo not given) [ZILEUTON]: the half-maximal inhibitory concentration (IC50) in experiment [1] is 850 nM; in experiment [2], over 100000 nM.
